Data: ChEMBL document CHEMBL1136440, “Design and synthesis of novel RXR-selective modulators with improved pharmacological profile” (Bioorg Med Chem Lett, 2003)

Tests used:
[1] = biological target: T1, Retinoic acid receptor RXR-alpha (Homo sapiens, UniProt P19793); test: biochemical
T1 sequence (P19793 whole entry): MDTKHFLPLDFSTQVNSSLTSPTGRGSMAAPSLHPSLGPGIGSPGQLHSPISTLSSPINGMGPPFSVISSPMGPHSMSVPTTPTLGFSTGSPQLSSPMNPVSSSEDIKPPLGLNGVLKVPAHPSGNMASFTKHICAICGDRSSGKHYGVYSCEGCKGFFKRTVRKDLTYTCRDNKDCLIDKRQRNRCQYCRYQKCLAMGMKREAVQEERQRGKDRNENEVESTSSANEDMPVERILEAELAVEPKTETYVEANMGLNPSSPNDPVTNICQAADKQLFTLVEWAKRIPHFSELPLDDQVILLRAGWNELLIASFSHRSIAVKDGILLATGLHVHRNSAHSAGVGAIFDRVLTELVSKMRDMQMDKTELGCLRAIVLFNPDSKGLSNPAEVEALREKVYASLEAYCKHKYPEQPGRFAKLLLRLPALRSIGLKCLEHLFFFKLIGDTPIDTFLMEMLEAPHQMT
Description: Binding affinity against RXR alpha receptor using [3H]9-cis-RA as radioligand in CV-1 cells

[2] = biological target: T2, Retinoic acid receptor RXR-beta (Homo sapiens, UniProt P28702); test: Displacement of [3H]9-cis-RA from RXR beta receptor in CV-1 cells; type: cell-based, Cercopithecidae
T2 sequence (P28702 whole entry): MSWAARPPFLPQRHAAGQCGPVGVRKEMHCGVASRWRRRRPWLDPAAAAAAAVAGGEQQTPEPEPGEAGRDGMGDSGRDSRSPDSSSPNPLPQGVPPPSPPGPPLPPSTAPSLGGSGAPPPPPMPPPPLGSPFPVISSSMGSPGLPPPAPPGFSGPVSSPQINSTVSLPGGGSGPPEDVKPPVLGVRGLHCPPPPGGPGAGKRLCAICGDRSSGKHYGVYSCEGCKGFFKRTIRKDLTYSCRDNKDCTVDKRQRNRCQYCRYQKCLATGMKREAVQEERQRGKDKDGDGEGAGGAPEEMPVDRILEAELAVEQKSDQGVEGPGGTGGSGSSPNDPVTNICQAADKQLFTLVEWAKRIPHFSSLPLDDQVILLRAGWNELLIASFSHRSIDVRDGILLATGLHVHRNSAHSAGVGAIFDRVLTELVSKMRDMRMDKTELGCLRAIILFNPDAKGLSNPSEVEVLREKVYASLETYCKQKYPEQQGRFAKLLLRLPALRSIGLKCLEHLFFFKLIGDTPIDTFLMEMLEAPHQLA

[3] = biological target: T1, Retinoic acid receptor RXR-alpha; test: In vitro antagonist activity against RXR alpha in CV-1 cells; type: functional, cell-based, Cercopithecidae
[4] = biological target: T1, Retinoic acid receptor RXR-alpha; test: In vitro agonistic activity against RXR alpha in CV-1 cells; type: functional, cell-based, Cercopithecidae

Compound	Ki [1]	Ki [2]	IC50 [3]	EC50 [4]
C/C(=C/C=C/C(C)=C/C(=O)O)c1cc(-c2ccccc2F)cc(C(C)C)c1OCC(F)F	2.3 nM	16 nM	3.1 nM	–
CCOc1c(\C(C)=C/C=C/C(C)=C/C(=O)O)cc(C(F)(F)C(F)(F)F)cc1C(C)C	6.3 nM	8.5 nM	5.3 nM	92 nM
